Measurements from ChEMBL document CHEMBL1136559, “Discovery, SAR, synthesis, pharmacokinetic and biochemical characterization of A-192411: a novel fungicidal lipopeptide-(I)” (Bioorg Med Chem Lett, 2003).
In brackets after ≈: the same amount, converted by molar mass. Positions of bridges follow the written chain, without caps; N, C: chain ends. Non-standard residues stand in square brackets, D forms with d. Residues, ends and D or L forms follow the SMILES beside them. *: point of attachment. pTerphenylCO(4''-OnC5H11) = CCCCCOc1ccc(-c2ccc(-c3ccc(C(=O)*)cc3)cc2)cc1; Pro(cis-4-guanidino) = NC(N)=N[C@@H]1CN[C@H](C(=O)O)C1; hTyr(3-COCH2NH2) = NCC(=O)c1cc(CC[C@H](N)C(=O)O)ccc1O; X3 = CCCCCCCCOc1ccc(N2CCN(c3ccc(C(=O)*)cc3)CC2)cc1; X5 = CCCCCCCCN1CCN(c2ccc(-c3ccc(C(=O)*)cc3)cc2)CC1; Pro(4S-NH2) = N[C@@H]1CN[C@H](C(=O)O)C1; Hyp = O=C(O)[C@@H]1C[C@@H](O)CN1; Orn = NCCC[C@H](N)C(=O)O

How the values were obtained:
Format in all cases: functional
[1] = test system: Aspergillus niger; assay: Antifungal activity against Aspergillus niger ATCC 16404; conditions: Aspergillus niger, ATCC 16404; read-out: MIC
[2] = test system: Kluyveromyces marxianus; assay: Antifungal activity against Candida kefyr ATCC 28838; conditions: Kluyveromyces marxianus, ATCC 28838; read-out: MIC
[3] = test system: Candida albicans; assay: Antifungal activity against Candida albicans 579A; conditions: Candida albicans; read-out: MIC
[4] = test system: Candida albicans; assay: Antifungal activity against Candida albicans ATCC 10231
[5] = test system: Candida albicans; assay: Antifungal activity against Candida albicans ATCC 38247
[6] = test system: Candida albicans; assay: Antifungal activity against Candida albicans ATCC 62376; conditions: Candida albicans, ATCC 62376; read-out: MIC
[7] = test system: Candida albicans; assay: Antifungal activity against Candida albicans CAF-2; conditions: Candida albicans; read-out: MIC
[8] = test system: Candida albicans; assay: Antifungal activity against Candida albicans CCH 442
[9] = test system: Naganishia albida; assay: Antifungal activity against Cryptococcus albidus ATCC 34140; conditions: Naganishia albida, ATCC 34140; read-out: MIC
[10] = test system: Nakaseomyces glabratus; assay: Antifungal activity against Torulopsis glabrata ATCC 15545; conditions: Nakaseomyces glabratus, ATCC 15545; read-out: MIC
[11] = test system: [Candida] zeylanoides; assay: Antifungal activity against Candida zeylanoides NRRL Y-112
[12] = Candida albicans, ATCC 10231, read-out: MIC
[13] = Candida albicans, ATCC 38247, read-out: MIC
[14] = Candida albicans, read-out: MIC
[15] = Dujonia zeylanoides, read-out: MIC

Row | Structure (SMILES) | MIC [1] [µg/mL] | MIC [2] [µg/mL] | MIC [3] [µg/mL] | MIC [4] [µg/mL] | MIC [5] [µg/mL] | MIC [6] [µg/mL] | MIC [7] [µg/mL] | MIC [8] [µg/mL] | MIC [9] [µg/mL] | MIC [10] [µg/mL] | MIC [11] [µg/mL] | MIC [4, 12] [µg/mL] | MIC [5, 13] [µg/mL] | MIC [8, 14] [µg/mL] | MIC [11, 15] [µg/mL]
1 | CCCCCOc1ccc(-c2ccc(-c3ccc(C(=O)N[C@H]4CCCNC(=O)[C@@H]5C[C@H](N=C(N)N)CN5C(=O)[C@H]([C@@H](C)O)NC(=O)[C@H](CCc5ccc(O)c(C(=O)CN)c5)NC(=O)[C@@H]5C[C@@H](O)CN5C(=O)[C@H]([C@@H](C)O)NC4=O)cc3)cc2)cc1 (stereo in doubt; 1) | 6.25 (≈ 5.39 µM) | 1.56 (≈ 1.34 µM) | 0.2 (≈ 0.172 µM) | 0.2 (≈ 0.172 µM) | 0.2 (≈ 0.172 µM) | 0.2 (≈ 0.172 µM) | 0.2 (≈ 0.172 µM) | 0.2 (≈ 0.172 µM) | 12.5 (≈ 10.8 µM) | 1.56 (≈ 1.34 µM) | 0.39 (≈ 0.336 µM) |  |  |  | 
2 | CCCCCCCCOc1ccc(N2CCN(c3ccc(C(=O)N[C@H]4CCCNC(=O)[C@@H]5C[C@H](N)CN5C(=O)[C@H]([C@@H](C)O)NC(=O)[C@H](CCc5ccc(O)c(C(=O)CN)c5)NC(=O)[C@@H]5C[C@@H](O)CN5C(=O)[C@H]([C@@H](C)O)NC4=O)cc3)CC2)cc1 (X3-[Orn]T[Hyp][hTyr(3-COCH2NH2)]T[Pro(4S-NH2)]; lactam 1-C) | 1.56 (≈ 1.34 µM) | 1.56 (≈ 1.34 µM) | 0.1 (≈ 0.0856 µM) |  |  | 0.1 (≈ 0.0856 µM) | 0.1 (≈ 0.0856 µM) |  | 6.25 (≈ 5.35 µM) | 0.2 (≈ 0.171 µM) |  | 0.1 (≈ 0.0856 µM) | 0.2 (≈ 0.171 µM) | 0.1 (≈ 0.0856 µM) | 0.1 (≈ 0.0856 µM)
3 | CCCCCCCCN1CCN(c2ccc(-c3ccc(C(=O)N[C@H]4CCCNC(=O)[C@@H]5C[C@H](N=C(N)N)CN5C(=O)[C@H]([C@@H](C)O)NC(=O)[C@H](CCc5ccc(O)c(C(=O)CN)c5)NC(=O)[C@@H]5C[C@@H](O)CN5C(=O)[C@H]([C@@H](C)O)NC4=O)cc3)cc2)CC1 (X5-[Orn]T[Hyp][hTyr(3-COCH2NH2)]T[Pro(cis-4-guanidino)]; lactam 1-C) | 3.12 (≈ 2.61 µM) | 1.56 (≈ 1.31 µM) | 0.2 (≈ 0.167 µM) |  |  | 0.2 (≈ 0.167 µM) | 0.1 (≈ 0.0837 µM) |  | 12.5 (≈ 10.5 µM) | 1.56 (≈ 1.31 µM) |  | 0.2 (≈ 0.167 µM) | 0.2 (≈ 0.167 µM) | 0.1 (≈ 0.0837 µM) | 0.2 (≈ 0.167 µM)
4 | CCCCCCCCOc1ccc(N2CCN(c3ccc(C(=O)N[C@H]4CCCNC(=O)[C@@H]5C[C@H](N=C(N)N)CN5C(=O)[C@H]([C@@H](C)O)NC(=O)[C@H](CCc5ccc(O)c(C(=O)CN)c5)NC(=O)[C@@H]5C[C@@H](O)CN5C(=O)[C@H]([C@@H](C)O)NC4=O)cc3)CC2)cc1 (X3-[Orn]T[Hyp][hTyr(3-COCH2NH2)]T[Pro(cis-4-guanidino)]; lactam 1-C) | 6.25 (≈ 5.16 µM) | 0.78 (≈ 0.644 µM) | 0.39 (≈ 0.322 µM) |  |  | 0.78 (≈ 0.644 µM) | 0.1 (≈ 0.0826 µM) |  | 6.25 (≈ 5.16 µM) | 0.78 (≈ 0.644 µM) |  | 0.78 (≈ 0.644 µM) | 0.39 (≈ 0.322 µM) | 0.78 (≈ 0.644 µM) | 3.12 (≈ 2.58 µM)
5 | CCCCCOc1ccc(-c2ccc(-c3ccc(C(=O)N[C@H]4CCCNC(=O)[C@@H]5C[C@H](N=C(N)N)CN5C(=O)[C@H]([C@@H](C)O)NC(=O)[C@H](CCc5ccc(O)c(C(=O)CN)c5)NC(=O)[C@@H]5CCCN5C(=O)[C@H]([C@@H](C)O)NC4=O)cc3)cc2)cc1 ({pTerphenylCO(4''-OnC5H11)}-[Orn]TP[hTyr(3-COCH2NH2)]T[Pro(cis-4-guanidino)]; lactam 1-C) | 25 (≈ 21.8 µM) | 1.56 (≈ 1.36 µM) | 0.2 (≈ 0.175 µM) |  |  | 0.2 (≈ 0.175 µM) | 0.1 (≈ 0.0874 µM) |  | 25 (≈ 21.8 µM) | 0.39 (≈ 0.341 µM) |  | 0.39 (≈ 0.341 µM) | 0.39 (≈ 0.341 µM) | 0.2 (≈ 0.175 µM) | 0.39 (≈ 0.341 µM)
6 | CCCCCOc1ccc(-c2ccc(-c3ccc(C(=O)N[C@H]4CCCNC(=O)[C@@H]5C[C@H](N)CN5C(=O)[C@H]([C@@H](C)O)NC(=O)[C@H](CCc5ccc(O)c(C(=O)CN)c5)NC(=O)[C@@H]5C[C@@H](O)CN5C(=O)[C@H]([C@@H](C)O)NC4=O)cc3)cc2)cc1 ({pTerphenylCO(4''-OnC5H11)}-[Orn]T[Hyp][hTyr(3-COCH2NH2)]T[Pro(4S-NH2)]; lactam 1-C) | 0.2 (≈ 0.179 µM) | 0.78 (≈ 0.697 µM) | 0.01 (≈ 0.00894 µM) |  |  | 0.1 (≈ 0.0894 µM) | 0.1 (≈ 0.0894 µM) |  | 3.2 (≈ 2.86 µM) | 0.2 (≈ 0.179 µM) |  | 0.1 (≈ 0.0894 µM) | 0.2 (≈ 0.179 µM) | 0.01 (≈ 0.00894 µM) | 0.1 (≈ 0.0894 µM)
